Assay results from publication PMC12523843, “Kuwanon A Targeted YWHAB in Hepatocellular Carcinoma Cells to Inhibit the Raf/MEK/ERK Signaling Pathway” (Cells, 2025).

Key:
[1] = target: T1, Raf1 and YWHAB interaction (Homo sapiens, UniProt P31946); assay: Co-immunoprecipitation of MYC-YWHAB and FLAG-Raf 1 in HEK 293T; format: cell-based; conditions: 25 μM and 30 μM, HEK 293T overexpressing MYC-YWHAB and FLAG-Raf 1
T1 construct: host or cells: HEK 293T
T1 sequence (P31946 1-246): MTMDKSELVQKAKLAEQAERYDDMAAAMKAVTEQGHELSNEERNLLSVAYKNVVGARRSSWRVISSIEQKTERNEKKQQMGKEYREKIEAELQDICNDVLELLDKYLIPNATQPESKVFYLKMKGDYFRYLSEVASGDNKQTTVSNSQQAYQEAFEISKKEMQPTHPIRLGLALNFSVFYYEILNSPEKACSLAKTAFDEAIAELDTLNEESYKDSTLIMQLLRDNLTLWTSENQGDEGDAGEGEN

[2] = test system: MHCC97H and SMMC 7721 cells; assay: CCK8 cell viability screen of mulberry active substances; format: cell-based, human; conditions: 10 μM, 48 h
Protocol: The CCK8 assay is used to investigate the effect of compounds on cell viability by measuring the amount of formazan dye. Firstly, 8000 cells were inoculated into each well of the 96-well plate with three replicates per condition. At the same time, add the corresponding mulberry active substances. After 48 h of incubation, 20 μL of the Cell Counting Kit-8 (CCK8) reagent (Beyotime, Shanghai, China) was added to each well. After being cultured under 37 °C and 5% carbon dioxide for 2–3 h, the absorbance was measured at 450 nm.

[3] = Renal and liver function tests in treated mice; format: in vivo, BALB/c-nu mice; conditions: KA-treated mice compared to DMSO controls
[4] = test system: phosphorylation of MEK1/2 and ERK1/2; assay: Western blot of MAPK pathway; format: cell-based, human
Protocol: Cells were harvested using a cell scrape and washed three times with PBS buffer, then lysed on ice in RIPA lysis buffer (Beyotime, Shanghai, China). Protein concentration was determined using a BCA protein assay kit (Beyotime, Shanghai, China). Subsequently, 60 µg of protein was mixed with 5× loading buffer and heated in a 100 °C water bath for 15 min. The samples were subjected to SDS-PAGE electrophoresis, followed by transfer onto a PVDF membrane (Millipore, Darmstadt, Germany). The membrane was blocked with 5% BSA for 2 h at room temperature and incubated sequentially with primary and HRP-conjugated secondary antibodies. Finally, signal detection was performed using an ECL detection system (Clinx, Shanghai, China).

[5] = test system: HCC cells (MHCC97 H and SMMC 7721); assay: Colony formation assay; format: cell-based, human
Protocol: Using a colony formation assay, the effect of KA on the colony-forming ability of HCC cells was evaluated. A total of 1000–2000 cells, along with KA, were seeded into each well of a six-well plate. During this period, fresh culture media and KA were replaced multiple times. After 2 to 3 weeks of incubation, the colonies were stained with crystal violet (Beyotime, Shanghai, China) and subsequently quantified in each well using ImageJ 1.52a software.

[6] = test system: HCC cells (MHCC97 H and SMMC 7721); assay: MTT cell proliferation assay; format: cell-based, human; conditions: 1–7 days
Protocol: Cell viability was assessed using MTT experiments. Cells, together with KA, were seeded into 96-well plates at a density of 2000 cells per well with three replicates per condition. DMSO was used as a control. At designated time points, 20 μL of MTT (Sigma, St. Louis, MO, USA) solution was added to each well and incubated for 3 h. After removing the culture medium, 200 μL of DMSO was added to dissolve the formazan crystals. The absorbance was then measured using a microplate reader at a wavelength of 560 nm.

MHCC97 H cells = assay: Transwell migration screen of selected compounds; format: cell-based, human; conditions: compounds at an IC50 concentration
Protocol: The Transwell assay measured the migration and invasion of cells by calculating the number of cells that passed through the material. Prior to the Transwell migration assay, cells were serum-starved in FBS-free culture medium for 24 h. The cells were then detached using trypsin, washed 1–2 times with PBS, and resuspended in DMEM. Approximately 50,000–100,000 cells were seeded into the upper chamber of the Transwell insert. The lower chamber was filled with 600 μL of complete medium containing the test compound. The Transwell system was incubated for 12 h under standard culture conditions (37 °C, 5% CO2). After incubation, the migrated cells on the lower membrane surface were fixed with 4% paraformaldehyde (PFA) and stained with 0.1% crystal violet. Non-migrated cells remaining in the upper chamber were carefully removed with a cotton swab. Finally, the stained cells were visualized under a microscope. If matrix gel was needed, it should be added according to the instructions (Beyotime, Shanghai, China) before the cells were seeded.

YWHAB dimer = target: T2, YWHAB dimer (Homo sapiens, UniProt P31946); assay: Co-immunoprecipitation of MYC-YWHAB and FLAG-YWHAB in HEK 293T; format: cell-based; parameters: host or cells: HEK 293T; conditions: 25 μM and 30 μM, HEK 293T overexpressing MYC-YWHAB and FLAG-YWHAB
T2 sequence (P31946 1-246): T1 sequence (P31946 1-246)

[7] = test system: HCC cells (MHCC97 H and SMMC 7721); assay: Cell wound healing assay; format: cell-based, human; conditions: 48 h, vs DMSO
Protocol: We seeded the cells in 6-well plates and allowed them to adhere and grow to full confluence. Then, we gently scratched the cell monolayer in a straight line using a sterile pipette tip. We rinsed the wells with PBS to remove detached cells and debris. We captured bright-field images of the scratched area at baseline (0 h). We replaced the medium with DMEM containing KA or DMSO and continued incubation. We re-imaged the same wound areas at 24 h and 48 h post-scratch. We quantified cell migration by measuring wound closure (%) over time using image analysis software.

[8] = test system: MHCC97 H cells injected into the liver; assay: Orthotopic hepatocellular carcinoma xenograft survival; format: in vivo, BALB/c-nu mice; conditions: 30 mg/kg intraperitoneal, every two days, 45 days
Text: Thirty-six female BALB/c-nu mice, four weeks old (supplied by Slike Jingda Laboratory Animal Co., Ltd., Changsha, China; Animal qualification number: SCXK-2019-0004), were housed in an SPF room. […] Therefore, female mice were selected for this study; 12 mice were used to establish the hepatocellular carcinoma xenografts. MHCC97 H cells (1 × 10^5 cells) were slowly injected into the left lobe of the mouse liver after being anesthetized with isoflurane. Three days later, the mice received intraperitoneal injections of KA (30 mg/kg) every two days for 45 days. Control mice were administered DMSO injections. Recorded the survival status of the animals. Prior to liver collection, the mice were anesthetized with isoflurane to minimize pain and euthanized by cervical dislocation. Ethics approval serial number: IACUC-20240613-03. Animal experiments were conducted in accordance with the Guide for the Care and Use of Laboratory Animals (Ministry of Science and Technology of China, 2006).

[9] = YWHAB-overexpressing HCC cells, KA 15 μM

SMILES: CC(C)=CCc1c(-c2ccc(O)c3c2OC(C)(C)C=C3)oc2cc(O)cc(O)c2c1=O [KA, Kuwanon A]
- amount of YWHAB interacting with Raf1 (co-immunoprecipitation) [1]: reduction in the amount of YWHAB interacting with Raf1
- viability of HCC cells (CCK8) [2]: significantly inhibited the viability of HCC cells
- renal and liver function tests (ALB, total protein, GOT/AST, GPT/ALT) [3]: no significant changes
- KA's effects on MEK1/2 and ERK1/2 phosphorylation under YWHAB overexpression ([4]; YWHAB-overexpressing HCC cells, KA 15 μM, 48 h): partly abrogated
- phosphorylation levels of MEK1/2 and ERK1/2 (Western blot) ([4]; indicated concentrations 48 h, 15 μM for 24 or 48 h): significant downregulation of the phosphorylation levels of MEK1/2 and ERK1/2
- in vitro colony formation ability under YWHAB overexpression [5, 9]: failed to inhibit the in vitro colony formation ability
- colony formation ability ([5]; indicated concentrations of KA, vs DMSO): significantly reduced colony formation ability
- HCC cell proliferation (continuous MTT) ([6]; 10 μM and 15 μM, vs DMSO): significantly inhibited HCC cell proliferation in a dose-dependent manner
- proliferation inhibition by KA under YWHAB overexpression (MTT) [6, 9]: partly reversed the proliferation inhibition
- migration of MHCC97 H (Transwell) (MHCC97 H cells): significantly inhibited the migration of MHCC97 H
- dimerization levels of YWHAB (co-immunoprecipitation) (YWHAB dimer): reduced dimerization levels of YWHAB
- wound healing (cell scratch assay) [7]: significant reduction in wound healing
- survival time [8]: significantly extended
